Patent US20170051149A1, “AZOARYLS AS REVERSIBLY MODULATABLE TUBULIN INHIBITORS” (ECOLE NORMALE SUPERIEURE DE LYON, priority 2014, published 2017)

Assays:
Test in all cases: cell cycle analysis by PI flow cytometry
Format in all cases: cell-based
HEK-293 = details: 30 h
Protocol: (§1) The effect of compound I.1 on cell cycle progression was assessed by flow cytometry. Briefly, following the application of compound I.1 and exposure to the indicated light regime, cells were harvested on ice and incubated in a hypotonic buffer [0.1% sodium citrate, 0.1% Triton X-100 and 50 μg/mL propidium iodide (PI)] for 30 min at 4° C. Following the PI staining cells were analysed by flow cytometry using FACSCalibur flow cytometer (Becton Dickinson, Heidelberg, Germany) and Cell Quest Pro Software (Becton Dickinson). Subsequently the cell cycle analysis was performed using the FlowJo software (Tree Star Inc., Ashland, Oreg., USA).

MDA-MB-231 cells = test system: MDA-MB-231 cells
Protocol: as §1

HepG2 cells = details: 48 h
Protocol: as §1

HeLa = details: 30 h
Protocol: as §1

[1] = 200 nM, 390 nm (1 s every 15 min)
[2] = 600 nM, 390 nm (1 s every 15 min)
[3] = 1.5 μM, 390 nm (1 s every 15 min)
[4] = 5 μM, 390 nm (1 s every 15 min)
[5] = 10 nM, 390 nm (150 ms every 30 s), 48 h
[6] = 20 nM, 390 nm (150 ms every 30 s), 48 h
[7] = 50 nM, 390 nm (150 ms every 30 s), 48 h
[8] = 100 nM, 390 nm (150 ms every 30 s), 48 h
[9] = 400 nM, 390 nm (150 ms every 30 s), 48 h
[10] = 600 nM, 390 nm (150 ms every 30 s), 48 h
[11] = 800 nM, 390 nm (150 ms every 30 s), 48 h
[12] = 1 μM, 390 nm (150 ms every 30 s), 48 h
[13] = 2 μM, 390 nm (150 ms every 30 s), 48 h
[14] = 5 μM, 390 nm (150 ms every 30 s), 48 h

## COc1ccc(N=Nc2cc(OC)c(OC)c(OC)c2)cc1O [I.1, 2-methoxy-5-((3,4,5-trimethoxyphenyl)diazenyl)phenol]
HEK-293; [1]
  mean % G2/M phase: 19.0%
HEK-293; 200 nM, dark
  mean % G2/M phase: 20.2%
HEK-293; [2]
  mean % G2/M phase: 19.4%
HEK-293; 600 nM, dark
  mean % G2/M phase: 21.2%
HEK-293; [3]
  mean % G2/M phase: 65.3%
HEK-293; 1.5 μM, dark
  mean % G2/M phase: 21.1%
HEK-293; [4]
  mean % G2/M phase: 71.5%
HEK-293; 5 μM, dark
  mean % G2/M phase: 24.6%
MDA-MB-231 cells; [5]
  % G1: 74.6%
  % G2: 1.9%
  % S: 17.1%
  mean % G2/M phase: 1.9%
MDA-MB-231 cells; 10 nM, 390 nm + 515 nm (rescue), 48 h
  mean % G2/M phase: 0.8%
MDA-MB-231 cells; 10 nM, 515 nm (500 ms every 30 s), 48 h
  mean % G2/M phase: 1.1%
MDA-MB-231 cells; [6]
  % G1: 79.5%
  % G2: 2.5%
  % S: 18.0%
MDA-MB-231 cells; [7]
  % G1: 77.1%
  % G2: 1.8%
  % S: 18.0%
MDA-MB-231 cells; [8]
  % G1: 76.6%
  % G2: 2.0%
  % S: 18.5%
  mean % G2/M phase: 2.0%
MDA-MB-231 cells; 100 nM, 390 nm + 515 nm (rescue), 48 h
  mean % G2/M phase: 0.9%
MDA-MB-231 cells; 100 nM, 515 nm (500 ms every 30 s), 48 h
  mean % G2/M phase: 1.2%
MDA-MB-231 cells; 200 nM, 390 nm (1 s every 15 min), 30 h
  mean % G2/M phase: 8.2%
MDA-MB-231 cells; 200 nM, dark, 30 h
  mean % G2/M phase: 14.3%
MDA-MB-231 cells; [9]
  % G1: 53.1%
  % G2: 15.1%
  % S: 27.6%
  mean % G2/M phase: 15.1%
MDA-MB-231 cells; 400 nM, 390 nm + 515 nm (rescue), 48 h
  mean % G2/M phase: 6.4%
MDA-MB-231 cells; 400 nM, 515 nm (500 ms every 30 s), 48 h
  mean % G2/M phase: 8.2%
MDA-MB-231 cells; 600 nM, 390 nm (1 s every 15 min), 30 h
  mean % G2/M phase: 16.3%
MDA-MB-231 cells; [10]
  % G1: 18.0%
  % G2: 42.6%
  % S: 31.0%
  mean % G2/M phase: 42.6%
MDA-MB-231 cells; 600 nM, 390 nm + 515 nm (rescue), 48 h
  mean % G2/M phase: 17.3%
MDA-MB-231 cells; 600 nM, 515 nm (500 ms every 30 s), 48 h
  mean % G2/M phase: 21.7%
MDA-MB-231 cells; 600 nM, dark, 30 h
  mean % G2/M phase: 12.8%
MDA-MB-231 cells; [11]
  % G1: 9.5%
  % G2: 54.2%
  % S: 27.5%
  mean % G2/M phase: 54.2%
MDA-MB-231 cells; 800 nM, 390 nm + 515 nm (rescue), 48 h
  mean % G2/M phase: 24.7%
MDA-MB-231 cells; 800 nM, 515 nm (500 ms every 30 s), 48 h
  mean % G2/M phase: 32.5%
MDA-MB-231 cells; [12]
  % G1: 5.5%
  % G2: 52.9%
  % S: 27.6%
  mean % G2/M phase: 52.9%
MDA-MB-231 cells; 1 μM, 390 nm + 515 nm (rescue), 48 h
  mean % G2/M phase: 22.3%
MDA-MB-231 cells; 1 μM, 515 nm (500 ms every 30 s), 48 h
  mean % G2/M phase: 28.4%
MDA-MB-231 cells; 1.5 μM, 390 nm (1 s every 15 min), 30 h
  mean % G2/M phase: 40.6%
MDA-MB-231 cells; 1.5 μM, dark, 30 h
  mean % G2/M phase: 13.1%
MDA-MB-231 cells; [13]
  % G1: 4.8%
  % G2: 60.1%
  % S: 26.4%
MDA-MB-231 cells; 5 μM, 390 nm (1 s every 15 min), 30 h
  mean % G2/M phase: 49.4%
MDA-MB-231 cells; [14]
  % G1: 5.0%
  % G2: 70.2%
  % S: 23.9%
MDA-MB-231 cells; 5 μM, dark, 30 h
  mean % G2/M phase: 13.8%
HepG2 cells; 100 nM, 390 nm (250 ms every 15 s)
  mean % G2/M phase: 7.8%
HepG2 cells; 100 nM, dark
  mean % G2/M phase: 10.0%
HepG2 cells; 600 nM, 390 nm (250 ms every 15 s)
  mean % G2/M phase: 9.4%
HepG2 cells; 600 nM, dark
  mean % G2/M phase: 8.6%
HepG2 cells; 1 μM, 390 nm (250 ms every 15 s)
  mean % G2/M phase: 10.7%
HepG2 cells; 1 μM, dark
  mean % G2/M phase: 10.1%
HepG2 cells; 3 μM, 390 nm (250 ms every 15 s)
  mean % G2/M phase: 9.3%
HepG2 cells; 3 μM, dark
  mean % G2/M phase: 11.2%
HepG2 cells; 10 μM, 390 nm (250 ms every 15 s)
  mean % G2/M phase: 42.3%
HepG2 cells; 10 μM, dark
  mean % G2/M phase: 11.7%
HeLa; [1]
  mean % G2/M phase: 26.2%
HeLa; 200 nM, dark
  mean % G2/M phase: 23.5%
HeLa; [2]
  mean % G2/M phase: 33.7%
HeLa; 600 nM, dark
  mean % G2/M phase: 24.8%
HeLa; [3]
  mean % G2/M phase: 59.9%
HeLa; 1.5 μM, dark
  mean % G2/M phase: 27.1%
HeLa; [4]
  mean % G2/M phase: 68.7%
HeLa; 5 μM, dark
  mean % G2/M phase: 28.4%
